Laboratory results published in ChEMBL document CHEMBL1201862, “PubChem BioAssay data set” (2004).
Activity calls are given as the source filed them.

Columns and labels:
[1] = molecular target: T1, Endoribonuclease toxin MazF (Escherichia coli K-12, UniProt P0AE70); assay: MazF toxin RNase activators, dose response, biochemical, fluorescence, single-stranded RNA substrate, uHTS hits (AID 588481); assay type: functional
T1 sequence (P0AE70 whole entry): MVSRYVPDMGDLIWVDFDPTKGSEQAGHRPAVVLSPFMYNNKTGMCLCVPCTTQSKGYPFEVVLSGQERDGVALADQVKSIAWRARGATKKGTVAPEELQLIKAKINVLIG

[2] = molecular target: T1, Endoribonuclease toxin MazF; assay: fluorescent RNA oligo signal without MazF, dose response, counter-screen for MazEF activator project, biochemical, fluorescence, single-stranded RNase substrate (AID 588502); assay type: functional
[3] = molecular target: Genome polyprotein (dengue virus type 2, UniProt P29990); assay: Dengue-2 NS5 methyltransferase inhibitors, primary screen, biochemical, confirmation dose response (AID 588689); assay type: functional
Genome polyprotein, sequence (P29990 2492-3391 limits assumed): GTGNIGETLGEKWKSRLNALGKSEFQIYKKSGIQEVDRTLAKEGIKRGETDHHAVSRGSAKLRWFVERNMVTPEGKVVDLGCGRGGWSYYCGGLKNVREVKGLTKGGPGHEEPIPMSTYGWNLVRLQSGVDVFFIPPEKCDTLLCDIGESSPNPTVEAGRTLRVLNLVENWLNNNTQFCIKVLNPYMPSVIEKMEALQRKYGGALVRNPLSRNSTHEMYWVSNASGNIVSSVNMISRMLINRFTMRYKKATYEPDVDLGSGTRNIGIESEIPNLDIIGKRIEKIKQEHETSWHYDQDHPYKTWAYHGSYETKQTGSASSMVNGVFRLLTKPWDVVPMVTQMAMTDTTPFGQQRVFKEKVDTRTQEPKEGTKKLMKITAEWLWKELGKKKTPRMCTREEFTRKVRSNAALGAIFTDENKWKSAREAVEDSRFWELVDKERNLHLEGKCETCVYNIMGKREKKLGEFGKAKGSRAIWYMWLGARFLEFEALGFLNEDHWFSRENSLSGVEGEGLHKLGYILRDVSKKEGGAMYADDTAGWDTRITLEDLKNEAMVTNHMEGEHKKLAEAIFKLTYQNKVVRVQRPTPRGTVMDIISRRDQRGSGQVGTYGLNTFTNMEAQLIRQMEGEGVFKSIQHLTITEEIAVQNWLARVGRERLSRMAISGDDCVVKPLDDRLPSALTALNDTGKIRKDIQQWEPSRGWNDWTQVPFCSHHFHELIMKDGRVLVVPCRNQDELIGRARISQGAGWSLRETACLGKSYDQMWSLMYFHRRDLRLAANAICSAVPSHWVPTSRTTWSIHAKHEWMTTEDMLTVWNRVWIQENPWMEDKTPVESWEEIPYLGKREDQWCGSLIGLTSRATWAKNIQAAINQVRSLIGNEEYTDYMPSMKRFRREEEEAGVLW

[4] = molecular target: T2, Corticotropin-releasing factor receptor 2/Corticotropin-releasing factor-binding protein (Homo sapiens, UniProt P24387+Q13324); assay: activators of CRF receptor 2 with binding protein – uHTS hits, confirmation (AID 602473); assay type: functional; conditions: read-out: EC50_Mean
T2 sequence (Q13324 whole entry): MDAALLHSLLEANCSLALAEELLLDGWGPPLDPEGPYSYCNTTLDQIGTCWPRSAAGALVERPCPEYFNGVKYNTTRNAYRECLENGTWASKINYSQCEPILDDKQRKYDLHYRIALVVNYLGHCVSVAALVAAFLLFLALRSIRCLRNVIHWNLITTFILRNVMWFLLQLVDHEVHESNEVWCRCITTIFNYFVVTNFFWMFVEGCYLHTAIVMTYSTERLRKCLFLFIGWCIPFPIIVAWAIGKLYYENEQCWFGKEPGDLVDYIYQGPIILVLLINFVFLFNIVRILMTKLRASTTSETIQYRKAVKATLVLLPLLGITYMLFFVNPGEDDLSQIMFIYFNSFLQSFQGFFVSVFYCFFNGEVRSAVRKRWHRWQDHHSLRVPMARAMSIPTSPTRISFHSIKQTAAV
T2 sequence (P24387 whole entry): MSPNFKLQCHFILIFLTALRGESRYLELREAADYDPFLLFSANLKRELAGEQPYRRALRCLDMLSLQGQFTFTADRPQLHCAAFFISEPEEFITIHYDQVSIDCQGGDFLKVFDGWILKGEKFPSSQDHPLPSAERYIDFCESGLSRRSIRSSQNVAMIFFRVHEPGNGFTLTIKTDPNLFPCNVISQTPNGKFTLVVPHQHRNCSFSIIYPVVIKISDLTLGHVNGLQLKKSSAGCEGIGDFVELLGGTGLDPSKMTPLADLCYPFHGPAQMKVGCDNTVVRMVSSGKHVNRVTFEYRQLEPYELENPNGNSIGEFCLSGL

[5] = CRF-BP/CRF-R2 complex antagonists, dose response, cell-based, uHTS hits, 384-well (AID 651639); assay type: functional, Homo sapiens; conditions: read-out: IC50_Mean
[6] = molecular target: T2, Corticotropin-releasing factor receptor 2/Corticotropin-releasing factor-binding protein; assay: Dose Response confirmation of uHTS hits for small molecule antagonists of the CRF-binding protein and CRF-R2 receptor complex.; assay type: functional; conditions: read-out: IC50_Mean
[7] = molecular target: DNA dC->dU-editing enzyme APOBEC-3G (Homo sapiens, UniProt Q9HC16); assay: Dose Response confirmation of small molecule APOBEC3G DNA Deaminase Inhibitors via a fluorescence-based single-stranded DNA deaminase assay. [Related pubchem assays (depositor defined):AID493012, AID493028]; assay type: functional
DNA dC->dU-editing enzyme APOBEC-3G, sequence (Q9HC16 whole entry): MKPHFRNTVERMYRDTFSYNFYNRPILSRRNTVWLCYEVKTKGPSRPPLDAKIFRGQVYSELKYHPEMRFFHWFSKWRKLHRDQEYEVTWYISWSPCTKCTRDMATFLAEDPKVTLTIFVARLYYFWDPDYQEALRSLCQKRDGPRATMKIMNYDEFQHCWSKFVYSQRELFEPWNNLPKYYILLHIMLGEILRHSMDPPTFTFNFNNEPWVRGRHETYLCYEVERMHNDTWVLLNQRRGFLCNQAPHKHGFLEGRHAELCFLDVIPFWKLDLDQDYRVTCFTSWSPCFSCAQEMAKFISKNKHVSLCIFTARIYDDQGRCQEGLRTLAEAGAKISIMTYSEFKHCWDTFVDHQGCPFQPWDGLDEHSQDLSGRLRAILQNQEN

[8] = tested on: BJ; assay: cells; assay type: functional, cell-based; conditions: Homo sapiens
[9] = tested on: BJ; assay: cytotoxicity toward BJ-TERT fibroblasts, dose response, cell-based, RAS-independent, luminescence (AID 1933); assay type: functional; conditions: Homo sapiens
[10] = molecular target: 72 kDa type IV collagenase (Homo sapiens, UniProt P08253); assay: Dose Response validation of uHTS RPN11 inhibitor hits using a MMP-2 Fluorescence assay.; assay type: functional
72 kDa type IV collagenase, sequence (P08253 whole entry): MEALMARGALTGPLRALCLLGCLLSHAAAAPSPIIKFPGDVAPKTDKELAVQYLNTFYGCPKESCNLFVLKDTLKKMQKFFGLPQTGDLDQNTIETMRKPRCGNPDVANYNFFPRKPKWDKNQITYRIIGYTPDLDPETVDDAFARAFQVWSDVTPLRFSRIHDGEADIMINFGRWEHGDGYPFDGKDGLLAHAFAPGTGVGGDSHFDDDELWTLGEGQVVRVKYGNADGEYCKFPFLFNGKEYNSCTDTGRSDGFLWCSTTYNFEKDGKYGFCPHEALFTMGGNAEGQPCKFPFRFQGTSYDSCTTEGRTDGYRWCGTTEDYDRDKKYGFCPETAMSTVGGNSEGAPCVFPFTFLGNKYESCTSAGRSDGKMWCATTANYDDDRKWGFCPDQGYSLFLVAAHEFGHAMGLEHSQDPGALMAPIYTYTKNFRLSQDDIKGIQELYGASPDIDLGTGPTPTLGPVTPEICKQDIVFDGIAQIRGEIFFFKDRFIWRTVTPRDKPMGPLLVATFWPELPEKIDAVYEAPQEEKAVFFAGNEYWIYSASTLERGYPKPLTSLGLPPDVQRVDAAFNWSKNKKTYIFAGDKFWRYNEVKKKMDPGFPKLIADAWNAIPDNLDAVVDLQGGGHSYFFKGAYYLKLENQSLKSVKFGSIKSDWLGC

[11] = molecular target: 26S proteasome non-ATPase regulatory subunit 14 (Homo sapiens, UniProt O00487); assay: inhibition of proteasome subunit RPN11 – biochemical, fluorescence polarization, uHTS hits, confirmation (AID 602368); assay type: functional
26S proteasome non-ATPase regulatory subunit 14, sequence (O00487 whole entry): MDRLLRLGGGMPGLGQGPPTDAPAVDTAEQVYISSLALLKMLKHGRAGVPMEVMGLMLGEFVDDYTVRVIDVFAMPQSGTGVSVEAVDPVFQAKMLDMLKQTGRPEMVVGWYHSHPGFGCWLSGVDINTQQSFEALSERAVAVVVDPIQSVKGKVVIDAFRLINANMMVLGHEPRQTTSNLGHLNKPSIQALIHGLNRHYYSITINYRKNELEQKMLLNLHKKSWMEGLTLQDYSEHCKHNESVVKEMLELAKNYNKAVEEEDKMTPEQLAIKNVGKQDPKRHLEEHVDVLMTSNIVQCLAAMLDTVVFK

[12] = molecular target: T3, Ubiquitin-conjugating enzyme E2 N (Homo sapiens, UniProt P61088); assay type: functional;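 also: Dose-response confirmation in a TR-FRET assay detecting UBC13-driven polyubiquitin chain formation, inhibition measured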
T3 sequence (P61088 whole entry): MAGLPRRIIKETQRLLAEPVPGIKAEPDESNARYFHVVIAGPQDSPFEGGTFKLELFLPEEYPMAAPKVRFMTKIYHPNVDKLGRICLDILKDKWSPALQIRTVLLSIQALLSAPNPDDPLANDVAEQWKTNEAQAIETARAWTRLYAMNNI

[13] = molecular target: Prothrombin (Bos taurus, UniProt P00735); assay: thrombin inhibition, dose response, biochemical, fluorescence polarization, uHTS hits (AID 602369); assay type: functional
[14] = molecular target: Trypsin (Sus scrofa, UniProt P00761); assay: porcine trypsin inhibitors, dose response, selectivity assay for Rce1 protease inhibitor project, biochemical, quenched peptide fluorescence, cherry-pick (AID 488789)
Trypsin, sequence (P00761 whole entry): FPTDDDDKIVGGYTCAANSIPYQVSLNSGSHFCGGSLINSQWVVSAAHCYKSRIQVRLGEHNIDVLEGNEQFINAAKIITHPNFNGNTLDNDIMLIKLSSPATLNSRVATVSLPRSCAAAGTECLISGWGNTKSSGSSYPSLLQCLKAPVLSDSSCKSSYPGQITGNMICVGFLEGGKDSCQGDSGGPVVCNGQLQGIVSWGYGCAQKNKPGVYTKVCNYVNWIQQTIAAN

[15] = molecular target: T4, CAAX prenyl protease 2 (Saccharomyces cerevisiae S288c, UniProt Q03530); assay type: biochemical
T4 sequence (Q03530 whole entry): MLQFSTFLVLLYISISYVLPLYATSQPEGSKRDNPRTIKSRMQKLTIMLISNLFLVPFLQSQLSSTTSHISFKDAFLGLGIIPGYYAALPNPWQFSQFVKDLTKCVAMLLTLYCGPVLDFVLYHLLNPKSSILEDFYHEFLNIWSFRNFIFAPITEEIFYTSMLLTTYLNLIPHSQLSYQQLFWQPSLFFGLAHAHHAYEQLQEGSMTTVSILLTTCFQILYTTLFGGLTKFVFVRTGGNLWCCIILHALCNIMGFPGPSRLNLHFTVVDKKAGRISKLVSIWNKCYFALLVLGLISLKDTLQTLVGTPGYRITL

[16] = cytotoxicity in HEK-293T cells, dose response, cytotoxicity control for BCR NF-kB inhibitor project, luminescence, B-cell screen hits (AID 489021); assay type: functional, cell-based;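 also: HEK-293T cells carrying an NF-kB luciferase reporter; cells exposed to compound for about 14 hours before viability readout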
[17] = THP-1 cell cytotoxicity, dose response, cytotoxicity control for non-replicating M. tuberculosis project (AID 489025); assay type: functional
[18] = molecular target: Large T antigen (Simian virus 40, UniProt P03070); assay type: functional, Betapolyomavirus macacae;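 also: Confirmatory-stage PubChem screen for compounds that inhibit SV40 T antigen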
Large T antigen, sequence (P03070 whole entry): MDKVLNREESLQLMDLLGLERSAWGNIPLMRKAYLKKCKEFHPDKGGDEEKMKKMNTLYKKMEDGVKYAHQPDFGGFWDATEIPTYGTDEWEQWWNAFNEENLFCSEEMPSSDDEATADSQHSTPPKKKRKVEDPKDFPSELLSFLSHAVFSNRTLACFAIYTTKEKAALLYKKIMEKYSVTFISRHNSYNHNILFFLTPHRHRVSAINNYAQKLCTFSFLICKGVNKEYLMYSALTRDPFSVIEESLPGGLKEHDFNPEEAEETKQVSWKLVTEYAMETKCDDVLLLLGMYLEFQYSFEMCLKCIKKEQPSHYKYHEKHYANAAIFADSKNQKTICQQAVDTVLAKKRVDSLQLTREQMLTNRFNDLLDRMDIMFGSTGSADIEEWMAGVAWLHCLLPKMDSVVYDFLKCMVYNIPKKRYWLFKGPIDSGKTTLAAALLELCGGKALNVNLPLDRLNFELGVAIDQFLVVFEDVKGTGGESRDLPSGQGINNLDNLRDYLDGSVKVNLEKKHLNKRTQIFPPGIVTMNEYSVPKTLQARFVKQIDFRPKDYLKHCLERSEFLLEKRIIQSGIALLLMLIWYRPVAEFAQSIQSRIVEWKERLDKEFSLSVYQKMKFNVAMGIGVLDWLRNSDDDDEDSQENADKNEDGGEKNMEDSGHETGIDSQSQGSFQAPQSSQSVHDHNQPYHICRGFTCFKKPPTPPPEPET

[19] = molecular target: Cytochrome P450 2D6 (Homo sapiens, UniProt P10635);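 also: CYP2D6 member of a cytochrome P450 panel assay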
Cytochrome P450 2D6, sequence (P10635 whole entry): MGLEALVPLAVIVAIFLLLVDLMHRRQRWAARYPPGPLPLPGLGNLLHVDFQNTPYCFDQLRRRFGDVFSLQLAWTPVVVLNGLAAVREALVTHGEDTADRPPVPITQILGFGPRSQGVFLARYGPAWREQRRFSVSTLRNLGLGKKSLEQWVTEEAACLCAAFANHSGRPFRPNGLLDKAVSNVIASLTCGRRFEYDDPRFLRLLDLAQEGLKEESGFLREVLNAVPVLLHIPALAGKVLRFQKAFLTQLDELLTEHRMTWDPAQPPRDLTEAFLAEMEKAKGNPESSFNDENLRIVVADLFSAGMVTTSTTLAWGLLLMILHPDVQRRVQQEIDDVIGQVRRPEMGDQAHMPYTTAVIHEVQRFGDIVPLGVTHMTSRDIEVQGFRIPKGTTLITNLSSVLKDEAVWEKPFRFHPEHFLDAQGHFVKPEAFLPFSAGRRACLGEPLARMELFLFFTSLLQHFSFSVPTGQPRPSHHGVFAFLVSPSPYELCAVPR

O=C1NC(=O)N(C2CCCCC2)C(=O)/C1=C\C=C\Nc1ccccc1
EC50 [1]: > 99 µM (inactive) | EC50 [2]: 9.49 µM (active)

O=C(O)c1ccc2c(c1)C(=O)N(c1ccc(/C=C/C(=O)c3ccccc3)cc1)C2=O
IC50 [3]: 56.7 µM (active)

C=CCn1c(SCc2c(C)noc2C)nc2sc(C)c(C)c2c1=O
EC50 [4]: > 53 µM (inactive) | IC50 [5]: > 20 µM (inactive) | IC50 [6]: < 0.368 µM (active)

CCOc1ccc(C(S)=NC2CCCCC2)cc1OC
IC50 [7]: 64.7 µM (active)

CCOC(=O)c1c(NC(=O)Nc2ccc(C)cc2)sc2c1CCN(C)C2
EC50 [1]: > 99 µM (inactive) | EC50 [2]: > 99 µM (inactive)

Cc1ccc(Nc2nc(N)nc(-c3oc4ccccc4c3C)n2)cc1
EC50 [8]: 0.228 µM (active) | EC50 [9]: < 0.12 µM (active)

CC(C)n1ncc2c(C(=O)Nc3ccc(S(N)(=O)=O)cc3)cc(C3CC3)nc21
IC50 [10]: > 100 µM (inactive) | IC50 [11]: 6.85 µM (active) | IC50 [12]: > 20 µM (inactive) | IC50 [13]: 73.6 µM (active)

Cc1cc(OCC(=O)N2CCC(C(=O)O)CC2)c2c(C)cc(=O)oc2c1
AC50 [14]: 21.7 µM (active) | AC50 [15]: 15.6 µM (active)

CC1(c2nnc(-c3cccc(Cl)c3)o2)CC(c2cccc(Cl)c2)=NO1 (configuration not stated)
IC50 [16]: > 80 µM (inactive)

COc1cccc(NC(=S)NC(Cc2ccccc2)c2ccccc2)c1 (configuration not stated)
EC50 [4]: > 53 µM (inactive) | IC50 [5]: 2.73 µM (active) | IC50 [6]: 3.35 µM (active)

CC/C(=N/Nc1cccc(C)c1)c1cnnc(SC)n1
EC50 [1]: > 99 µM (inactive) | EC50 [2]: > 99 µM (inactive)

Cc1ccc(CO/N=C\Cc2snc(Sc3ncc(C(F)(F)F)cc3Cl)c2C#N)cc1
IC50 [10]: > 100 µM (inactive) | IC50 [11]: 14.6 µM (active) | IC50 [13]: 54.2 µM (active)

Cn1cccc1/C=N\NC(=O)C1COc2ccccc2O1 (configuration not stated)
CC50 [17]: > 40 µM (active)

N#C/C(=C\c1ccc(O)c(O)c1)C(=O)Nc1ccccc1
IC50 [18]: 13.1 µM (active) | IC50 [10]: > 100 µM (inactive) | IC50 [11]: 1.3 µM (active) | IC50 [13]: 67.9 µM (active) | AC50 [19]: 39.8 µM (inconclusive)
